Entries after “also recorded” stand apart in the source; their conditions may differ.
What was measured:
[1] = test system: mesenchymal stem cells (MSCs); test: MSC viability, trypan blue exclusion; assay type: cell-based, human
Protocol: Cytocompatibility. The cytocompatibility of prodrugs generated from small modification of known drugs was investigated. […] To test the cyto compatibility of prodrug-based amphiphiles and bolaamphiphiles, and their effect on cell characteristics such as viability, proliferation, adhesion and cell phenotype, a series of experiments was performed with mesenchymal stem cells (MSCs). To gain more insight into the effect of modification, unmodified drug Apn was used as a control. The viability of control cells and cells treated with Apn, Apn-7-COOH and Apn-8-Apn was examined with trypan blue assay. Use of Mesenchymal stem cells is appropriate given that these systems may be used for localized release likely into connective tissues.
Mesenchymal Stem Cell Culture. Primary human mesenchymal stem cells were maintained in expansion media that consisted of 15% Fetal Bovine Serum (selected for its ability to expand MSCs), 1% (v/v) L-Glutamine, 1% (v/v) Penn-Strep, and α-MEM. All experiments were performed using MSCs at passage number 4-6.
Viability, Adhesion and Proliferation Characteristics. The viability of the cells was examined using trypan blue exclusion. […] The media was then aspirated and the cells were detached with 200 μL of cell dissociated solution (similar quantities of floating cells were observed between the groups, typically 5-10 per well). 300 μL of media was added and the total 500 μL of the cell dispersion was collected in an eppendorf tubes. From this 10 μL of cell dispersion was diluted to 1:1 with 4% trypan blue solution and cells were counted in a hemocytometer to determine the number viable (non-blue) and nonviable (blue) cells. A control for this experiment included cells treated with only phosphate buffer saline (PBS) without an amphiphile. Cell adhesion was quantified by measuring the number of adherent cells on tissue culture surfaces in 96 well plates after incubating with amphiphiles for 12 hours. For proliferation studies, 5000 cells were added to each well of a 96 well plate in 200 μL of MSC cell expansion media, and appropriate amphiphiles were then added and incubated at 37° C. and 5% CO2. Proliferation was quantified by manually tabulating the number of cells within the flask at multiple time points (1, 2, 3, 4, 6 and 8 days) with light microscopy at 10×.

[2] = Gelation studies with Apn-based prodrug gelators in water and organic solvents; assay type: physicochemical; parameters: key to Gelation ability: G = gel; P = precipitate; S = soluble; I = insoluble
Excerpt: Gelation Studies with Prodrug-Based Gelators. Gelation abilities of Apn based amphiphilic prodrugs have been investigated thoroughly in a wide range of solvents. For detailed gelation results, see Table 1, below). Typically, the required amount of gelator was placed in a glass vial and with an appropriate solvent. […] The resulting solution was slowly cooled to room temperature and gelation was visually observed. […] Despite of prolonged heating Apn-11-CH3 was not soluble in water. […] In addition, Apn-7-COOH is soluble in basic solutions (pH is more than 8).
All gels were opaque in nature and stable for several weeks.
Preparation of Gels. Typically, gelator (0.1-5 mg) and required solvent (0.1-1 mL) were placed into a 2 mL scintillation vial, which was then sealed with a screw cap. The vial was heated with shaking until the solid was completely dissolved.

[3] = test system: mesenchymal stem cells (MSCs); test: MSC adipogenic differentiation, Oil Red O staining; assay type: cell-based, human; conditions: 250 μM, 23 days of induction
Protocol: (§1) Unlike typical fibroblast cell lines used for toxicity screening, cultured mesenchymal stem cells are highly sensitive to the presence of soluble factors and can often loose their capacity for multi-lineage differentiation or differentiate into non-desired lineages depending on the culture conditions. To examine the impact of the acetaminophen amphiphilic prodrugs on multi-lineage differentiation of MSCs, cells were treated with adipogenic and osteogenic induction media in presence of amphiphiles followed by respective colorimetric histological staining.
Adipogenic Differentiation. MSCs were seeded in the wells of 24 well plates, and were culture in MSC expansion media until they reach 90% confluence (note: in control samples there was no amphiphile present, whereas in experimental samples 250 μM of Apn-based amphiphile was present). Adipogenic differentiation was induced by culturing the cells for 23 days in adipogenic induction media (from Lonza—MSCs Adipogenic Single Quote kit containing h-Insulin (recombinant), L-Glutamine, Dexamethasone, Indomethacin, IBMX (3-isobuty-1-methyl-xanthine), Pen/Strep) and adipogenic maintenance media (from Lonza—MSCs Adipogenic Single Quote kit containing h-Insulin (recombinant), L-Glutamine, Pen/Strep). […] Adipogenesis was evaluated by Oil Red O staining. Following aspiration of the media, cells were washed once with PBS, and fixed in PBS with 3.7% formaldehyde for 30 min at room temperature. Following fixation cells were rinsed with distilled water for a few minutes, and incubated with isopropanol containing an Oil Red O working solution (prepared by diluting 30 mL of 0.5% isopropanol/Oil Red O solution with 20 mL of distilled water). After 45 minutes culture well were rinsed twice with distilled water and 1 mL of hematoxylin was added to each well for 1 minute followed by aspiration and washing with distilled water. The wells were viewed using an inverted phase contrast microscope.

[4] = test system: mesenchymal stem cells (MSCs); test: MSC osteogenic differentiation, alkaline phosphatase staining; assay type: cell-based, human; conditions: 250 μM, 23 days
Protocol: as §1
Osteogenic Differentiation. MSCs were seeded in the wells of 24 well plates, and were culture in MSC expansion media until they reach 90% confluence (note: in control samples there was no amphiphile present, whereas in experimental samples 250 μM of Apn-based amphiphile was present). Osteogenic differentiation was induced by culturing the cells for 23 days in osteogenic induction media (from Lonza—MSCs Osteogenic Single Quote kit) containing dexamethasone, β-glycerophosphate, L-ascorbic acid-2-phosphate, and α-MEM. The media in both groups was changed every 3 days (note: each time while changing the media, 250 μM of Apn-based amphiphiles were added to maintain constant concentration). Osteogenesis was evaluated by cell membrane associated alkaline phosphatase activity. Alkaline phosphatase activity was examined after 23 days by carefully aspirating the media and washing the cells with PBS. The cells were fixed with 3.7% formaldehyde solution for 15 min at room temperature followed by rinsing with distilled water. 0.06% Red Violet LB salt solution in Tris HCl was added with distilled water containing DMF and Naphthol AS MX-PO4. The plates were incubated for 45 minutes at room temperature and then the wells were rinsed 3 times with distilled water and imaged under with inverted phase contrast microscope.

CC(=O)Nc1ccc(OC(=O)CCCCCCC(=O)O)cc1 [Apn-7-COOH]
viable cells ([1]; 250 μM, 48 hours incubation): 87% | viability rates over concentration range ([1]; up to 500 μM, 48 hours): not significantly affected | solubility in basic solutions ([2]; pH is more than 8): soluble | Gelation ability ([2]; solvent chloroform): S | Gelation ability ([2]; solvent ethanol): S | Gelation ability ([2]; solvent ethyl acetate): I | Gelation ability ([2]; solvent isopropanol): I | Gelation ability ([2]; solvent methanol): S | Gelation ability ([2]; solvent t-butanol): I | Gelation ability ([2]; solvent water): G | minimum gelation concentration ([2]; solvent water): 0.4 wt/v % | gelation in water (in words) ([2]; water / aqueous solutions): forms excellent gels | adipogenic differentiation, Oil Red O (ORO) staining [3]: robust capacity; also recorded: equally stained for ORO | osteogenic differentiation, alkaline phosphatase (ALP) staining [4]: robust capacity; also recorded: equally stained for ALP

— patent US11458153B2, “Drug delivery composition comprising a self-assembled gelator” (The Brigham and Women's Hospital, Inc., priority 2008, dated 2022)
